Experimental data: patent US20070027093A1, “Anorectic” (Japan Tobacco Inc., priority 2004, published 2007)
Like-named read-outs stand apart in the source and are kept apart here.

How the values were obtained:
SD(IGS) rats = test: Evaluation of compounds' effect on food consumption in rats; format: in vivo; details: Rattus norvegicus, fasted SD(IGS) rats, high fat diet; for inhibition in vivo at 10 mg/kg: 10 mg/kg oral; for inhibition in vivo at 1 mg/kg: 1 mg/kg oral
Excerpt: Evaluation of Compounds' Effect on Food Consumption in Rats
SD(IGS) rats (Charles River Japan, Inc., 5-10 weeks of age, male) were used for the pharmacological tests. Rats were individually housed in the room set to a light cycle of lights-out at 10 am and lights-on at 10 pm, and were adapted to high fat diet (35% w/w). They were acclimated for more than 10 days prior to experiments under these conditions.
Based on the food consumption during acclimation and the body weight on the day of experiment, rats were grouped with no difference between groups.
As the test compound, Compounds A-P were used. These test compounds were suspended in 0.5% methyl cellulose solution.
Rats were fasted for about 24 hours before experiment. Each dose of the test compound was orally administered just after the lights-out, and immediately thereafter, the feeding of the high fat diet was resumed. The food weight was measured at 1, 4 and 8 hours after the resumption of the feeding to obtain the cumulative food consumption. The inhibitory rate on food consumption was determined by the following formula using the weight of the cumulative food consumption in each group.
The inhibitory rate on food consumption (%)=(1-test compound group/vehicle group)×100

human DGAT1 = target: T1, human DGAT1 (Homo sapiens, UniProt O75907); test: Assay of DGAT1 enzyme inhibitory activity (Scintillation Proximity Assay); format: biochemical; details: human DGAT1 membrane fraction from Sf21 cells, 200 μM dioleoyl glycerol, 25 μM 14C decanoyl CoA, SPA; read-out: DGAT1 enzyme inhibitory activity (IC50 class)
T1 construct: FLAG (N); made in house; host or cells: Sf21 insect cells (baculovirus, Bac-to-Bac system); cell membrane fraction
T1 sequence (O75907 1-488): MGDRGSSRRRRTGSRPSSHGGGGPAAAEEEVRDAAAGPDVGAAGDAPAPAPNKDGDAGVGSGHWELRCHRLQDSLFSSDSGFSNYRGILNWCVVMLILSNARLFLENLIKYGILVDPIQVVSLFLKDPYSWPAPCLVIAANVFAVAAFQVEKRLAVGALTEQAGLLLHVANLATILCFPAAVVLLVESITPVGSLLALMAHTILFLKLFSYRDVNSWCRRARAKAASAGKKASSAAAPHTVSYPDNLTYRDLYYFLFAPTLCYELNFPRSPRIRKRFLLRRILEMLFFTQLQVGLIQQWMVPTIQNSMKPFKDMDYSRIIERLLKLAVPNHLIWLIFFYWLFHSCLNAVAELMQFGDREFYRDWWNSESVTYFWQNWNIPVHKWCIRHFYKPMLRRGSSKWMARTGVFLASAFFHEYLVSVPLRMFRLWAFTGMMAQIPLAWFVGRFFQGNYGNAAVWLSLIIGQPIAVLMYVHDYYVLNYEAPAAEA
Description: The enzyme source used for the assay was prepared using a human DGAT1 cDNA isolated from the human liver cDNA library. To be specific, a restriction enzyme cleaving sequence and a flag-labeling sequence were added onto the 5′ side and a restriction enzyme cleaving sequence was added onto the 3′ side of the human DGAT1 cDNA by PCR, and human flag tag DGAT1 baculovirus was prepared using Bac-to-Bac Baculovirus Expression System (Invitrogen). Sf21 insect cells were infected for 24-72 hours, recovered and ruptured in a homogenizing buffer using a microfluidizer. The homogenate was centrifuged at 45,000 rpm for 1 hour, and the cell membrane fractions were recovered and used as an enzyme source.
The DGAT inhibitory activity was measured by Scintillation Proximity Assay (SPA). Human DGAT1 membrane fraction (0.25 μg/well) was mixed with various concentrations of the compound and 200 μM of dioleoyl glycerol (enzyme substrate). […] Wheat Germ Agglutinin (WGA) SPA beads-suspended 6 mM HgCl2 (25 μL) was added to terminate the reaction, and the reaction mixture was kept at room temperature for 2 hours to allow adhesion of produced TG onto the SPA beads together with the cell membrane. The mixture was centrifuged at 2,500 rpm for 5 min to precipitate the SPA beads. The radioactivity was measured using Top Count.

[1] = cumulative food consumption 1 h after resumption of feeding, read-out: inhibitory rate on food consumption, 1 h
[2] = cumulative food consumption 4 h after resumption of feeding, read-out: inhibitory rate on food consumption, 4 h
[3] = cumulative food consumption 8 h after resumption of feeding, read-out: inhibitory rate on food consumption, 8 h

Row | SMILES | inhibition in vivo at 10 mg/kg (SD(IGS) rats; [1]) [%] | inhibition in vivo at 10 mg/kg (SD(IGS) rats; [2]) [%] | inhibition in vivo at 10 mg/kg (SD(IGS) rats; [3]) [%] | inhibition in vivo at 1 mg/kg (SD(IGS) rats; [1]) [%] | inhibition in vivo at 1 mg/kg (SD(IGS) rats; [2]) [%] | inhibition in vivo at 1 mg/kg (SD(IGS) rats; [3]) [%] | IC50 (human DGAT1) [nM]
1 | CC1(C)Oc2ncnc(N)c2N=C1c1ccc([C@H]2CC[C@H](CC(=O)O)CC2)cc1 [Compound A] | 29 | 37 | 30 |  |  |  | 
2 | Cc1nc(N)c2c(n1)OC(C)(C)C(c1ccc([C@H]3CC[C@H](CNC(=O)C(C)(C)CO)CC3)cc1)=N2 [Compound G] |  |  |  | 29 | 19 | 15 | 
3 | CC1(C)Oc2ncnc(N)c2C=C1c1ccc2c(c1)CC[C@]21CC[C@@H](CC(=O)O)CC1 [Compound P] |  |  |  | 20 | 36 | 28 | 
4 | Cc1nc(N)c2c(n1)OC(C)(C)C(c1ccc([C@H]3CC[C@H](CCc4nc(=O)on4C)CC3)cc1)=N2 [Compound F] |  |  |  | 11 | 20 | 13 | 
5 | CC1(C)Oc2ncnc(N)c2N=C1c1ccc([C@H]2CC[C@H](CC(=O)O)CC2)cc1 [Compound C] |  |  |  | 24 | 30 | 19 | 
6 | Cc1nc(N)c2c(n1)OC(C)(C)C(c1ccc([C@H]3CC[C@H](CNC(=O)CO)CC3)cc1)=N2 [Compound E] |  |  |  | 6 | 15 | 20 | 
7 | Cc1nc(N)c2c(n1)OC(C)(C)C(c1ccc([C@H]3CC[C@H](CNC(N)=O)CC3)c(Cl)c1)=N2 [Compound O] |  |  |  | 20 | 13 | 12 | 
8 | Cc1nc(N)c2c(n1)OC(C)(C)C(c1ccc([C@H]3CC[C@H](CNC(=O)CO)CC3)c(Cl)c1)=N2 [Compound H] |  |  |  | 36 | 36 | 20 | 
9 | Cc1nc(N)c2c(n1)OC(C)(C)C(c1ccc([C@H]3CC[C@H](CNC(=O)C(C)(C)O)CC3)cc1)=N2 [Compound I] |  |  |  | 30 | 1 | 4 | 
10 | CCCc1c(C(=O)OCC)c(C(=O)OCC)c2c(-c3ccccc3)cc(N3CCOCC3)nn12 [Compound B, Diethyl 2-morpholin-4-yl-4-phenyl-7-propylpyrrolo[1,2-b]pyridazine-5,6-dicarboxylate] | 26 | 14 | 4 |  |  |  | > 100
11 | Cc1nc(N)c2c(n1)OC(C)(C)C(c1ccc([C@H]3CC[C@H](Cc4nc(=O)o[nH]4)CC3)cc1)=N2 [Compound J] |  |  |  | 8 | 23 | 10 | 
12 | CC1(C)Oc2nc(C(F)(F)F)nc(N)c2N=C1c1ccc2c(c1)CCC21CCC(CC(=O)O)CC1 (centres unmarked) [Compound K] |  |  |  | 19 | 37 | 22 | 
13 | CC1(C)Oc2nc(C(F)(F)F)nc(N)c2N=C1c1ccc([C@H]2CC[C@H](CNC(N)=O)CC2)c(Cl)c1 [Compound N] |  |  |  | 17 | 6 | 7 | 
14 | Cc1nc(N)c2c(n1)OC(C)(C)C(c1ccc([C@H]3CC[C@H](CN4CCCC(O)C4=O)CC3)cc1)=N2 (some centres unmarked) [Compound L] |  |  |  | 10 | 16 | 9 | 10 to 100
15 | CC1(C)Oc2nc(C(F)(F)F)nc(N)c2N=C1c1ccc([C@H]2CC[C@H](CC(=O)O)CC2)c(Cl)c1 [Compound M] |  |  |  | 26 | 12 | 14 | 
16 | Cc1nc(N)c2c(n1)OC(C)(C)C(c1ccc([C@H]3CC[C@H](CC(=O)O)CC3)cc1)=N2 [Compound D] |  |  |  | 50 | 27 | 17 | 
